Data set [1] deals with isolated rat hearts. Nature of the data set: Concentration-response of quinazoline compounds on left ventricle systolic pressure and heart rate of isolated rat hearts. Particulars: for increase in systolic pressure: according to basal absolute values of systolic pressure; for bradycardia response: decrease in heart rate compared to basal values; for Final heart rate: final value after infusions of increased concentrations; for Emax in the fractional pressor response: fractional values; for Initial heart rate: initial value before infusions of increased concentrations; for maximum pressor response (LVP): isolated rat hearts, infused concentrations 30 pM-2 μM. From the text: Systolic pressure responses of the left ventricle were expressed as fractional values, while heart rate responses were expressed as absolute values. […] EC50: concentration of the drug that produces half of the maximum effect.

Data set [2] deals with myocardium of isolated rat hearts. Nature of the data set: Adenosine dosage (HPLC) in the myocardium of isolated rat hearts. From the text:
We conducted adenosine dosages in the myocardium of isolated rat hearts with compounds 4d (Example 7) and 4i (Example 17). Chromatograms obtained through HPLC experiments in rat myocardium extracts for dosage of tissue adenosine and AMP are presented in FIG. 6.

The target in another data set is T1, cardiac adenosine kinase (Rattus norvegicus, UniProt Q64640).
T1 construct: used as a substrate in myocardium extracts; from tissue; host or cells: rat myocardium (heart) extract
T1 sequence (Q64640 whole entry): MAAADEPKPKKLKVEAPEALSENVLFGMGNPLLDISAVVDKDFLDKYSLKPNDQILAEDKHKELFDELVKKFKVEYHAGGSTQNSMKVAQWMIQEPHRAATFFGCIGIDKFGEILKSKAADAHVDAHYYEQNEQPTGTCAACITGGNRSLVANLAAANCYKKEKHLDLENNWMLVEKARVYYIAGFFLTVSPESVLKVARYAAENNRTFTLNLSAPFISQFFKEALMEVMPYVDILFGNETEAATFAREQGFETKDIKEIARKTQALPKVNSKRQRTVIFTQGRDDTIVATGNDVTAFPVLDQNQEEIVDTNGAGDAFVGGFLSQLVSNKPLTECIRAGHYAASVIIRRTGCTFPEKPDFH
Nature of the data set: HPLC adenosine kinase activity test with derivatized adenosine as substrate in myocardium extracts. It is filed as biochemical. The note with it: fluorescence detection.

Data set [3] concerns isolated rat hearts. Nature of the data set: Concentration-response in isolated heart with heart rate held constant by electrical stimulator. The note with it: heart rate held constant by electrical stimulator (FIG. 12). From the text: In order to confirm our hypothesis that pressor response of compound 4i depends on bradycardia and not on a direct action of 4i in the inotropism of isolated rat hearts, we conducted experiments where heart rate was held constant during infusion of increased concentrations of 4i (Example 17), through the action of an electrical stimulator. In FIG. 12 we represent the concentration-response relationship to 4i (Example 17) in isolated heart submitted to electrical stimulus.

In data set [4] the test system is isolated rat hearts. Nature of the data set: Heart rate of isolated rat hearts perfused with HEPES buffer with 1 nM 4i with or without 8-PT. Here is the method:
In FIG. 14, we present diagrams that represent heart rates of isolated rat hearts perfused with pure HEPES buffer (control), or HEPES buffer with 1 nM of 4i (Example 17), or HEPES buffer with 1 nM of 4i (Example 17) plus 1 μM of unspecific inhibitor of adenosine receptors, 8-PT (4i+8-PT). […] However, perfusion of hearts with 4i (Example 17) and 8-PT annulled bradycardia caused by 4i (Example 17), confirming our hypothesis that the quinazoline compound could be acting in a direct or indirect way on adenosine receptors. In Table 5, we present heart rate values (bpm) from individual experiments of isolated hearts perfused with pure HEPES buffer (control), HEPES buffer with 1 nM of 4i (Example 17), or HEPES buffer with 1 nM of 4i (Example 17) and […] of 8-PT (mean±S.E.M.).

The test system of data set [5] is isolated hearts. The data set is described as follows: Isolated hearts perfused with propanolol, diltiazem or reduced calcium concentration. Further details: species or system rat. Particulars: propanolol or diltiazem blocking, or decreased calcium in perfusion buffer. From the text: There was also a negative correlation between levels of ventricular pressure and heart rate in isolated hearts treated with increased doses of compound 4i (Example 17) in the presence of blockers like propanolol and diltiazem, and reduced concentrations of calcium in the perfusion buffer. In FIG. 11, we presented diagrams of the correlation between increase in systolic pressure and decrease in heart rate in isolated hearts submitted to injections (bolus) of 4i (Example 17) perfused with propanolol, diltiazem and with reduction of the calcium concentration in the perfusion buffer. Data are presented as mean±S.E.M.
Results obtained with 4i (Example 17) and other quinazoline compounds point out that the main functional effect of these compounds on isolated rat hearts is bradycardia, and the pressor effect depends on bradycardia, and thus is a consequence of particularities of the preparation used (i.e., isolated heart) and not a direct effect. Because the bradycardia response was not altered by propanolol or diltiazem blocking, or even by decrease in calcium concentration in the perfusion buffer, our hypothesis is that this effect of quinazoline compounds depends on a direct effect of them on pacemaker cells, or even on an indirect effect through secretion of autocrine or paracrine compounds. […]

Data set [6] concerns isolated hearts. Nature of the data set: Concentration-effect experiments with adenosine with and without 8-PT in isolated hearts. Further details: species or system rat. Particulars: for EC50: Rattus norvegicus. Here is the method:
In Table 3, we present values of Emax, EC50 (nM) and LogEC50 in the fractional pressor response to infusion of increased concentrations of adenosine in isolated hearts perfused with pure HEPES buffer, or with HEPES buffer with 8-PT (mean±S.E.M.).
Both effects were altered by the action of the unspecific adenosine receptor inhibitor, 8-PT (1 μM), added to the perfusion buffer. According to results presented in FIG. 13, the increase in systolic pressure in response to infusion of increased concentrations of adenosine, both in control hearts as in those treated with the unspecific adenosine inhibitor, was almost the same. […] Concerning heart rate, the adenosine bradycardia effect was reduced when the inhibitor was present, showing a decrease of about 15% if compared to basal values of Table 4, where we present initial and final heart rate values (bpm) in the response to infusion of increased concentrations of adenosine in isolated hearts perfused with pure HEPES buffer and HEPES buffer with 8-PT (mean±S.E.M.).

Where [7] appears, read: Rattus norvegicus, mean±S.E.M., given as negative log values, read-out: LogEC50 in the fractional pressor response (converted).
Setting [8] is: Rattus norvegicus, mean±S.E.M., infusion of increased concentrations, read-out: EC50 in the fractional pressor response.
[9] abbreviates: mean±S.E.M., infusion of increased concentrations, hydrochloride.

Like-named read-outs stand apart in the source and are kept apart here.

What is called melting point is the temperature of the solid-liquid transition. On to `COc1cc2ncnc(Nc3ccc(I)cc3)c2cc1OC.Cl`, for which the melting point was in the range of 266 to 269 °C.

Molecule `COc1cc2ncnc(Nc3ccc(C)cc3)c2cc1OC.Cl` gave a melting point of 227 to 229 °C.

Take `COc1cc2ncnc(Nc3cccc(C(C)=O)c3)c2cc1OC.Cl`: the melting point was 219 to 221 °C.

For the molecule `COc1cc2ncnc(Nc3ccc(C(C)=O)cc3)c2cc1OC.Cl`, the melting point fell in the range of 218 to 220 °C.

In the case of `COc1cc2ncnc(Cl)c2cc1OC` [3a, 4-chloro-6,7-dimethoxyquinazoline], the EC50 in the data set on isolated rat hearts [1] (setting [7]) is 0.631 nM. Besides, the EC50 with isolated rat hearts [1] (setting [8]) was found to be 0.6 ± 0.5 nM. In the data set on isolated rat hearts [1], the “increase in systolic pressure” value is on record as approximately 30% and the bradycardia response is recorded as approximately 29%. Besides, in the data set on isolated rat hearts [1] (mean±S.E.M.), the Final heart rate is given as 173 ± 1 bpm and the Initial heart rate is listed as 242 ± 5 bpm. In addition, in the data set with isolated rat hearts [1] (mean±S.E.M., infusion of increased concentrations), the “Emax in the fractional pressor response” value was found to be 0.6±0.2.

In the case of `COc1cc2ncnc(Nc3cccc(Br)c3)c2cc1OC.Cl` [4d, 6,7-Dimethoxy-4-(3′-bromoanilino)quinazoline hydrochloride], in the data set on isolated rat hearts [1] (setting [7]), the EC50 is 6.31 nM. Moreover, the EC50 in the data set on isolated rat hearts [1] (setting [8]) is 6 ± 1.2 nM. For the same molecule, in the data set on isolated rat hearts [1], the “increase in systolic pressure” value was approximately 14%, the bradycardia response was approximately 25% and the “maximum pressor response (LVP)” value is 8±4 mmHg. In the data set with isolated rat hearts [1] (mean±S.E.M.), this molecule had a Final heart rate of 164 ± 3 bpm and an Initial heart rate of 219 ± 12 bpm. Also, the “Emax in the fractional pressor response” value in the data set with isolated rat hearts [1] (setting [9]) came to 0.3±0.1. The “effect on amount of myocardial adenosine” value in data set [2] (chromatograms of rat myocardium extracts (FIG. 6)) was “increased substantially”. Besides, the myocardial adenosine value in data set [2] (hearts treated with compound, average, basal value 0.48) was 0.75 nmol/mg of protein. Further, the adenosine kinase inhibition entry at cardiac adenosine kinase is listed as “adenosine kinase inhibitors”.

Turning to `COc1cc2ncnc(Nc3cccc(N(C)C)c3)c2cc1OC.Cl` [4i, 6,7-Dimethoxy-4-(3′-N′,N′-dimethylaminoanilino)quinazoline hydrochloride], in the data set with isolated rat hearts [1], the “increase in systolic pressure” value was “approximately 35%”, the bradycardia response entry was “approximately 24%” and the “maximum pressor response (LVP)” value was determined as 27±3 mmHg. Moreover, in the data set with isolated rat hearts [1] (mean±S.E.M.), the Final heart rate turned out to be 173 ± 8 bpm and the Initial heart rate is given as 228 ± 7 bpm. Further, the “Emax in the fractional pressor response” value in the data set with isolated rat hearts [1] (setting [9]) is given as 0.9±0.2. The “LogEC50 in the fractional pressor response” value in the data set on isolated rat hearts [1] (mean±S.E.M., given as negative log values) is reported as −9.9 ± 0.3. Further, in the data set on isolated rat hearts [1] (mean±S.E.M., infusion of increased concentrations, read-out: EC50 in the fractional pressor response), the EC50 came to 0.1 ± 0.03 nM. Moreover, the “pressor response with heart rate controlled” value in the data set on isolated rat hearts [3] is “almost annulled”. Also, the “reduction of heart rate” value in the data set on isolated rat hearts [4] (1 nM 4i, compared to control hearts) is “approximately 17%”. Further, the “Heart Rate” value with isolated rat hearts [4] (HEPES buffer with 1 nM 4i, control 233 ± 7) worked out at 194 ± 7 bpm. In addition, in the data set on isolated hearts [5], the “bradycardia response under blocking” value is on record as “not altered”. For the same molecule, the adenosine kinase inhibition result on cardiac adenosine kinase was “adenosine kinase inhibitors”.

In the case of `Nc1ncnc2c1ncn2[C@@H]1O[C@H](CO)[C@@H](O)[C@H]1O` [Adenosine, adenosine], in the data set with isolated hearts [6] (1 μM adenosine (maximum response)), the “increase in ventricular pressure” value came to 16±2 mmHg. Further, the “decrease in heart rate” value in the data set with isolated hearts [6] (8-PT (1 μM) present, compared to basal values) is recorded as “about 15%”. In addition, the EC50 is 30 ± 19 nM in the data set on isolated hearts [6] (HEPES buffer with 8-PT (1 μM), read-out: EC50 pressor response); 6.31 nM with isolated hearts [6] (pure HEPES buffer, given as negative log values, read-out: LogEC50 in the fractional pressor response (converted)); 7 ± 1.4 nM with isolated hearts [6] (pure HEPES buffer, mean±S.E.M., read-out: EC50 pressor response); 1.8 ± 1.4 nM in the data set with isolated hearts [6] (pure HEPES buffer, read-out: EC50 bradycardia response). For the same molecule, the “reduction in heart rate” value with isolated hearts [6] (compared to absolute basal values, 1 μM adenosine (maximum response)) is “approximately 19%”. For the same molecule, the “Final heart rate” value with isolated hearts [6] (pure HEPES buffer, final value after increased concentrations) was 185 ± 2 bpm. In addition, the “Initial heart rate” value in the data set on isolated hearts [6] (pure HEPES buffer, initial value) amounted to 228 ± 2 bpm. Also, the “Emax in the fractional pressor response” value with isolated hearts [6] (pure HEPES buffer, mean±S.E.M.) was 0.93 ± 0.05.

The values are drawn from US8513267B2, “4-anilinoquinazoline derivatives with adenosine-kinase inhibitor properties” (Universidade Estadual de Campinas-Unicamp, priority 2004, dated 2013).
